The target in one experiment is T1, Nitric oxide synthase 3 (Homo sapiens, UniProt P29474).
T1 sequence (P29474 whole entry): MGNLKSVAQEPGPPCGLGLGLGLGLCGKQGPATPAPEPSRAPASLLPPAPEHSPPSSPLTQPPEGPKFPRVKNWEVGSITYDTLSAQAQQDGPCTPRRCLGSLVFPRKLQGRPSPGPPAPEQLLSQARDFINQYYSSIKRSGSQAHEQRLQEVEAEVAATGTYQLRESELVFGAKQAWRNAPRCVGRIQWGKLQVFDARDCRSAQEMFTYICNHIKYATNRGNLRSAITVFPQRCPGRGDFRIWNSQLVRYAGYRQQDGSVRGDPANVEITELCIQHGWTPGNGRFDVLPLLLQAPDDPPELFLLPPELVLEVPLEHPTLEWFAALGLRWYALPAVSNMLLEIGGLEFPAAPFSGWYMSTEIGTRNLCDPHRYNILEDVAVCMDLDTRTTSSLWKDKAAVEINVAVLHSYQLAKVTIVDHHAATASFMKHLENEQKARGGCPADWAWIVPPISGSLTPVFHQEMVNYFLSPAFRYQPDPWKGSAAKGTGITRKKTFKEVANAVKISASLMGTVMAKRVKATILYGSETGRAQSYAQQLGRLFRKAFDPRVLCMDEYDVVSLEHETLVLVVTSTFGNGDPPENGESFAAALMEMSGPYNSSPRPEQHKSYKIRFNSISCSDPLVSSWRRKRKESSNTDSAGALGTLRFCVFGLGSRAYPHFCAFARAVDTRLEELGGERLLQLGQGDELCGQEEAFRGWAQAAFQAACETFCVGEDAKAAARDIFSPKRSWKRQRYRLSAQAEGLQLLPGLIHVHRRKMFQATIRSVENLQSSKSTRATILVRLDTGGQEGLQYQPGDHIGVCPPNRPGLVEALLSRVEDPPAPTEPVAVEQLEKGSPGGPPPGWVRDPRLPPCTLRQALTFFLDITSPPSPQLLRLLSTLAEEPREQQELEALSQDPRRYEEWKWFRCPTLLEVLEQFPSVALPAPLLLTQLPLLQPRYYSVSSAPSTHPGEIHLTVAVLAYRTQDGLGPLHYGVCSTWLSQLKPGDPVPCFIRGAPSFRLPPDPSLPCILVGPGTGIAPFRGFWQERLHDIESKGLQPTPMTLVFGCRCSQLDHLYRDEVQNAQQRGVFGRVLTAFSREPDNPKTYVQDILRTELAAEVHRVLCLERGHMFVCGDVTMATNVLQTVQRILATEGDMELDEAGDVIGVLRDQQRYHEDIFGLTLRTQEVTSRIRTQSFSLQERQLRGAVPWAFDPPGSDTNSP
Description: In vitro inhibition of human endothelial nitric oxide synthase.

Experiment [1] deals with Nitric oxide synthase, inducible (Homo sapiens, UniProt P35228). The experiment can be described thus: In vitro inhibition of human inducible nitric oxide synthase.
Experiment [2] deals with Nitric oxide synthase 1 (Rattus norvegicus, UniProt P29476). Description: In vitro inhibition of rat neuronal nitric oxide synthase.
Experiment [3] addresses Nitric oxide synthase 1 (Homo sapiens, UniProt P29475). Description: In vitro inhibition of human neuronal nitric oxide synthase.

Molecules are shown by their SMILES.

Sequence of Nitric oxide synthase 1 (Rattus norvegicus, UniProt P29476) (P29476 whole entry): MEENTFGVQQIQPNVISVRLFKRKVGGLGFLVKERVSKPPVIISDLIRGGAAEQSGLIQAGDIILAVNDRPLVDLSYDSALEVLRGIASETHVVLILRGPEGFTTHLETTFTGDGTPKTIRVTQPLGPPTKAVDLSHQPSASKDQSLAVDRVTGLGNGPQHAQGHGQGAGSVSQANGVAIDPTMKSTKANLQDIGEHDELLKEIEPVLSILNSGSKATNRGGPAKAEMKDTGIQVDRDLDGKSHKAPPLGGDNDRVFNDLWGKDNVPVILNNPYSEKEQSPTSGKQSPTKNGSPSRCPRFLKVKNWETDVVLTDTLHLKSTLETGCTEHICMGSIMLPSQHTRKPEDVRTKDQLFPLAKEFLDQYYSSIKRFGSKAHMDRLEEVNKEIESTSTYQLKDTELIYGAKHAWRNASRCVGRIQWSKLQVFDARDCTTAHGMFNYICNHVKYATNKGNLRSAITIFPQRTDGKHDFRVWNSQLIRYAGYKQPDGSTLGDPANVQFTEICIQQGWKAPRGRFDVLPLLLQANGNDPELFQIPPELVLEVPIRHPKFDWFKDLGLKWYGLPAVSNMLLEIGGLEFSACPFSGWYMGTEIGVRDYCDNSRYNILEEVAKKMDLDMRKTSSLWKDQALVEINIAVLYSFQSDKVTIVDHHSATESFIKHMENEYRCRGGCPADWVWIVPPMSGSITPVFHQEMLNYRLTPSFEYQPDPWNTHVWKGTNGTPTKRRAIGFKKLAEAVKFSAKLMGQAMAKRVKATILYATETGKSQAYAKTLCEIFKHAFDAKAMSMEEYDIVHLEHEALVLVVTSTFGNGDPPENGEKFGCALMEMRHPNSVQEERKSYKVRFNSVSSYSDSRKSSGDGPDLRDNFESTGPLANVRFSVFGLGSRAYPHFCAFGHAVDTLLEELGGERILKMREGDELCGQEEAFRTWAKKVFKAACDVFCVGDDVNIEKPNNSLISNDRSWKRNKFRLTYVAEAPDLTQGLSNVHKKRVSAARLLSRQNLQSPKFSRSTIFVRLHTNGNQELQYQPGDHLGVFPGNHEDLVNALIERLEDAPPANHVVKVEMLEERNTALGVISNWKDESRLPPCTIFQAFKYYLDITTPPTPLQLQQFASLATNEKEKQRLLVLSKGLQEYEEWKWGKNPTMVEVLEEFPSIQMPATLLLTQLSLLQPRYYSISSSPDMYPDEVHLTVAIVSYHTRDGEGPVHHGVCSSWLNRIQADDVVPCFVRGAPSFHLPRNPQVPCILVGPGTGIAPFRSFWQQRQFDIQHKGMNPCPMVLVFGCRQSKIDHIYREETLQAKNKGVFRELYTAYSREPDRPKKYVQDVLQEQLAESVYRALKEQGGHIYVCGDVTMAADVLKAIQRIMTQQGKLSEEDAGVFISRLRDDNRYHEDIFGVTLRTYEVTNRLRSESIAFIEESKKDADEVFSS
Sequence of Nitric oxide synthase, inducible (P35228 whole entry): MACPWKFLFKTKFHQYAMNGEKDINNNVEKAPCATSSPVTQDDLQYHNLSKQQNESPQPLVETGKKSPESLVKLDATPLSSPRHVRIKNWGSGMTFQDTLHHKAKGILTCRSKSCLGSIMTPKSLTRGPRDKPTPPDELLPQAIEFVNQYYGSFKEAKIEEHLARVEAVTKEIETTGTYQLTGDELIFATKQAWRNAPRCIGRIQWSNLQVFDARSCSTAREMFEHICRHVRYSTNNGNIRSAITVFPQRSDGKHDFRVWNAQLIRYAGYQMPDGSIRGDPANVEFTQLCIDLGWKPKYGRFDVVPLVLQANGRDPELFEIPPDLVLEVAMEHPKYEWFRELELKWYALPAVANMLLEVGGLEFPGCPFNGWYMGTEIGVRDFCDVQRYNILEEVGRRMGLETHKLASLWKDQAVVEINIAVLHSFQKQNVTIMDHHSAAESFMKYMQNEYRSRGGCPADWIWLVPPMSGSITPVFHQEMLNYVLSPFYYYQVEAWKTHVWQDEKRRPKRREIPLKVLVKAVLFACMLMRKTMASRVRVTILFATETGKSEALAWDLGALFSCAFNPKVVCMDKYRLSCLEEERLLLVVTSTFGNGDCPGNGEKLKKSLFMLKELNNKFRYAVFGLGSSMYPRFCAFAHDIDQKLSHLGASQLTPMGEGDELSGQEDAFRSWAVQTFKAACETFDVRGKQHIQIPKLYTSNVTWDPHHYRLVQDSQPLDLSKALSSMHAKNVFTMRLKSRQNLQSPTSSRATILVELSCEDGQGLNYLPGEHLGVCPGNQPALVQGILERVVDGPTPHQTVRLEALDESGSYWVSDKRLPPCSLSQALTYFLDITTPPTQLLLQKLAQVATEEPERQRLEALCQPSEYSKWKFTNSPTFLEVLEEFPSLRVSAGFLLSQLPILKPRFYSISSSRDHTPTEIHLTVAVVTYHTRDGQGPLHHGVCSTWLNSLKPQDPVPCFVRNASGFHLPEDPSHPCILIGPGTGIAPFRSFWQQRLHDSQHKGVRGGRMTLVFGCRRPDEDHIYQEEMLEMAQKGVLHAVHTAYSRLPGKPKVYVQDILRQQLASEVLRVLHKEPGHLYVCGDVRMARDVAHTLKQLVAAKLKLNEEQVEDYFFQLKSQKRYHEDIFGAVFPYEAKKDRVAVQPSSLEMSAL
Sequence of Nitric oxide synthase 1 (Homo sapiens, UniProt P29475) (P29475 whole entry): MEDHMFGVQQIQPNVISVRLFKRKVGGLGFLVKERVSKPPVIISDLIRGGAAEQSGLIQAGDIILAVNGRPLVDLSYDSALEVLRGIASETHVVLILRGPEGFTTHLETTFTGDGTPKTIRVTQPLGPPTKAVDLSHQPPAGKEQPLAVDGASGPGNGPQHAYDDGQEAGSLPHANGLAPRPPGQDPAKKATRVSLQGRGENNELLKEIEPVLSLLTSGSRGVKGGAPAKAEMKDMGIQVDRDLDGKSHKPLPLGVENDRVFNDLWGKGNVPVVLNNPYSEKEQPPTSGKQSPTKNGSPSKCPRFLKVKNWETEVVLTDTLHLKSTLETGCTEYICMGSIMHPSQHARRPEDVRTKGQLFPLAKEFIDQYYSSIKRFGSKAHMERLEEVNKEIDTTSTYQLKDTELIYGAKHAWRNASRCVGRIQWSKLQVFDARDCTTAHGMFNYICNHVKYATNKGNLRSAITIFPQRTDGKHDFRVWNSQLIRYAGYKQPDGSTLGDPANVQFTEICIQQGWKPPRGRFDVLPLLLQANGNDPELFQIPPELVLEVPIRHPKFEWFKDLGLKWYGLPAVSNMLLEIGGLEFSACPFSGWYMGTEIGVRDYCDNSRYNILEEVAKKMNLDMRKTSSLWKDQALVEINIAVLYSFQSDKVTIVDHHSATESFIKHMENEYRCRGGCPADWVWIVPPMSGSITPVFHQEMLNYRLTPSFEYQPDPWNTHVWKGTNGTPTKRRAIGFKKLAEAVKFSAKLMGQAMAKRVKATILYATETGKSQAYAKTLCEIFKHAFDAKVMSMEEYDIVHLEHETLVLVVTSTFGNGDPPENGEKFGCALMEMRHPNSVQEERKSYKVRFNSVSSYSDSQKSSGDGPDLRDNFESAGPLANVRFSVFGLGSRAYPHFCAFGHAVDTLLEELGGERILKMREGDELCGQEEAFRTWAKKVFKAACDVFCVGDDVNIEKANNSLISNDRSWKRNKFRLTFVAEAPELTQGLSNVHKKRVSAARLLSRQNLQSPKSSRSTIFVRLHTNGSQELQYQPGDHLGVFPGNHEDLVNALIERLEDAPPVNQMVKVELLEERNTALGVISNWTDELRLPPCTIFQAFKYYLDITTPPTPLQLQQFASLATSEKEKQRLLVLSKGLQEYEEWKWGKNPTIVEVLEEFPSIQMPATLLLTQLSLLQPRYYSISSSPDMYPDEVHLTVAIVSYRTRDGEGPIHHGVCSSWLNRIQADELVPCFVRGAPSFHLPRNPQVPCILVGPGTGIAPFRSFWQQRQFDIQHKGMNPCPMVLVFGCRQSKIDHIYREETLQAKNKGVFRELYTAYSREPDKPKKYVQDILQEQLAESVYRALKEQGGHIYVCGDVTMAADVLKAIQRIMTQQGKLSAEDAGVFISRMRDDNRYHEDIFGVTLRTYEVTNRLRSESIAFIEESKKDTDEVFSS

With `CN1CCC(Oc2ccc(-c3cccc(N)n3)c3ccccc23)C1` (stereo unspecified), the half-inhibitory concentration (IC50) on Nitric oxide synthase 3 came out at 13 µM; in experiment [1], 2.07 µM; against Nitric oxide synthase 1 [2], 0.048 µM; on Nitric oxide synthase 1 [3], 0.0703 µM.
In the same order, the values of `CN1CCN(CCOc2ccc(-c3cccc(N)n3)c3ccccc23)CC1` are 12 µM, 9.38 µM, 0.306 µM and 0.39 µM.
The like results for `CN(C)CCOc1ccc(-c2cccc(N)n2)c2c1CCCC2` were, in that order, 3.53 µM, 0.517 µM, 0.034 µM and 0.0709 µM.
As for `O=[N+]([O-])c1cccc2cn[nH]c12` [7-NITROINDAZOLE], the IC50 against Nitric oxide synthase 1 [3] was 2.5 µM.
For `CN(C)CCOc1ccc(-c2cccc(N)n2)c2c1C1CCC2C1` (stereo unspecified), the concentration for half-maximal inhibition (IC50) turned out to be 19 µM on Nitric oxide synthase 3, 1.08 µM in experiment [1], 0.185 µM against Nitric oxide synthase 1 [2] and 0.12 µM on Nitric oxide synthase 1 [3].
Take `Nc1cccc(-c2ccc(OCCN3CCCC3)c3ccccc23)n1`: the IC50 at Nitric oxide synthase 3 was 3.71 µM; in experiment [1] it was 1.77 µM; against Nitric oxide synthase 1 [2] it was 0.175 µM; at Nitric oxide synthase 1 [3] it was 0.25 µM.
The like results for `CN(C)C1CCCCC1Oc1ccc(-c2cccc(N)n2)c2ccccc12` (stereo unspecified) were, in that order, 13 µM, 2.37 µM, 0.14 µM and 0.161 µM.
Take `Nc1cccc(-c2ccc(OCC3CC4CCN3CC4)c3ccccc23)n1` (stereo unspecified): the IC50 was 3.77 µM against Nitric oxide synthase 3, 5.8 µM in experiment [1], 0.088 µM at Nitric oxide synthase 1 [2] and 0.0963 µM at Nitric oxide synthase 1 [3].
In the same order, the values of `CN(C)CCOc1ccc(-c2cccc(N)n2)c2c1CCC2` are 1.57 µM, 0.592 µM, 0.0218 µM and 0.0506 µM.
The like results for `CN(C)C1CCN(CCOc2ccc(-c3cccc(N)n3)c3ccccc23)CC1` were, in that order, 7.02 µM, 5.75 µM, 0.195 µM and 0.203 µM.
For the molecule `Nc1cccc(-c2ccc(OCCN3CCCC3)c3c2CCC3)n1`, the IC50 at Nitric oxide synthase 3 was 0.785 µM; in experiment [1], 0.45 µM; at Nitric oxide synthase 1 [2], 0.059 µM; against Nitric oxide synthase 1 [3], 0.117 µM.
The like results for `Nc1cccc(-c2ccc(OCCN3CCCC3)c3c2CCCC3)n1` were, in that order, 2.21 µM, 0.358 µM, 0.08 µM and 0.141 µM.
Regarding `CN1CCN(CCOc2ccc(-c3cccc(N)n3)c3c2CCC3)CC1`, the half-inhibitory concentration (IC50) was 3.03 µM on Nitric oxide synthase 3, 2.2 µM in experiment [1], 0.082 µM against Nitric oxide synthase 1 [2] and 0.123 µM on Nitric oxide synthase 1 [3].
In the same order, the values of `CN(C)CCOc1ccc(-c2cccc(N)n2)c2c1CCCCC2` are 5.75 µM, 2.1 µM, 0.093 µM and 0.109 µM.
In the case of `CN1CCN(CCOc2ccc(-c3cccc(N)n3)c3c2CCCC3)CC1`, the IC50 against Nitric oxide synthase 3 worked out at 10.6 µM; in experiment [1], 1.28 µM; at Nitric oxide synthase 1 [2], 0.0992 µM; on Nitric oxide synthase 1 [3], 0.121 µM.
In the same order, the values of `CN(C)CCOc1ccc(-c2cccc(N)n2)c2ccccc12` are 5.79 µM, 4.6 µM, 0.167 µM and 0.22 µM.
In the same order, the values of `CN1CCCC1COc1ccc(-c2cccc(N)n2)c2ccccc12` (stereo unspecified) are 2.93 µM, 2.85 µM, 0.0805 µM and 0.112 µM.
At Nitric oxide synthase 1 [2], `Cc1ccnc(N)c1` yielded an IC50 of 0.04 µM.

The IC50 is the concentration at which inhibition is half-maximal. A lower IC50 goes with greater potency in that assay.

Values taken from ChEMBL document CHEMBL1149107, “Structure-activity relationships of potent, selective inhibitors of neuronal nitric oxide synthase based on the 6-phenyl-2-aminopyridine structure” (J Med Chem, 2004).
